Source: PMC8745178, “Methyl 2-Halo-4-Substituted-5-Sulfamoyl-Benzoates as High Affinity and Selective Inhibitors of Carbonic Anhydrase IX” (International Journal of Molecular Sciences, 2021)
Several values for one entry are separate records, joined by “and”; a condition that tells them apart may be missing. Equal entries are not always repeated.

Legend:
[1] = biological target: T1, CAI (Homo sapiens, UniProt P00915); assay: fluorescent thermal shift assay (FTSA), CAI; format: binding; conditions: 37 °C; for ΔGintr CAI: converted from Kd_intr, independent of pH; for ΔGobs CAI: converted from Kd_obs, pH 7.0, FTSA
[2] = biological target: T2, CAII (Homo sapiens, UniProt P00918); assay: fluorescent thermal shift assay (FTSA), CAII; format: binding; conditions: 37 °C; for ΔGintr CAII: converted from Kd_intr, independent of pH; for ΔGobs CAII: converted from Kd_obs, pH 7.0, FTSA
[3] = tested on: CAII; assay: fluorescent thermal shift assay (FTSA), CAII; format: binding, human; conditions: intrinsic
[4] = biological target: CAVB (Homo sapiens, UniProt Q9Y2D0); assay: fluorescent thermal shift assay (FTSA), CAVB; format: binding; conditions: 37 °C; for ΔGintr CAVB: converted from Kd_intr, independent of pH; for ΔGobs CAVB: converted from Kd_obs, pH 7.0, FTSA
[5] = biological target: CAVI (Homo sapiens, UniProt P23280); assay: fluorescent thermal shift assay (FTSA), CAVI; format: binding; conditions: 37 °C; for ΔGintr CAVI: converted from Kd_intr, independent of pH; for ΔGobs CAVI: converted from Kd_obs, pH 7.0, FTSA
[6] = biological target: CAVII (Homo sapiens, UniProt P43166); assay: fluorescent thermal shift assay (FTSA), CAVII; format: binding; conditions: 37 °C; for ΔGintr CAVII: converted from Kd_intr, independent of pH; for ΔGobs CAVII: converted from Kd_obs, pH 7.0, FTSA
[7] = biological target: T3, CAIX (Homo sapiens, UniProt Q16790); assay: fluorescent thermal shift assay (FTSA), CAIX; format: binding; conditions: for ΔGobs CAIX: pH 7
[8] = biological target: CAXIII (Homo sapiens, UniProt Q8N1Q1); assay: fluorescent thermal shift assay (FTSA), CAXIII; format: binding; conditions: 37 °C; for ΔGobs CAXIII: converted from Kd_obs, pH 7.0, FTSA; for ΔGintr CAXIII: converted from Kd_intr, independent of pH
[9] = biological target: CAXIV (Homo sapiens, UniProt Q9ULX7); assay: fluorescent thermal shift assay (FTSA), CAXIV; format: binding; conditions: 37 °C; for ΔGobs CAXIV: converted from Kd_obs, pH 7.0, FTSA; for ΔGintr CAXIV: converted from Kd_intr, independent of pH
[10] = determination of pKa of the sulfonamide group by UV-VIS spectra at various pH; format: physicochemical; conditions: for f RSO2NH-, fraction of deprotonated sulfonamide: at pH 7.0, calculated from pKa; for pKa: calculated from spectra at various pH, 37 °C
[11] = biological target: T1, CAI
[12] = biological target: T2, CAII
[13] = biological target: T4, CAXII (Homo sapiens, UniProt O43570); conditions: for -TΔSintr CAXII / ΔHintr CAXII: intrinsic, 37 °C; for ΔHintr CAXII: independent of pH and buffer; for ΔHobs CAXII: observed, sodium phosphate buffer pH 7.0, 37 °C, ITC
[14] = 37 °C
[15] = biological target: CAIII (Homo sapiens, UniProt P07451); assay: fluorescent thermal shift assay (FTSA), CAIII; format: binding; conditions: 37 °C; for ΔGintr CAIII: converted from Kd_intr, independent of pH; for ΔGobs CAIII: converted from Kd_obs, pH 7.0, FTSA
[16] = biological target: CAIV (Homo sapiens, UniProt P22748); assay: fluorescent thermal shift assay (FTSA), CAIV; format: binding; conditions: 37 °C; for ΔGintr CAIV: converted from Kd_intr, independent of pH; for ΔGobs CAIV: converted from Kd_obs, pH 7.0, FTSA
[17] = biological target: CAVA (Homo sapiens, UniProt P35218); assay: fluorescent thermal shift assay (FTSA), CAVA; format: binding; conditions: 37 °C; for ΔGintr CAVA: converted from Kd_intr, independent of pH; for ΔGobs CAVA: converted from Kd_obs, pH 7.0, FTSA
[18] = biological target: T4, CAXII; assay: fluorescent thermal shift assay (FTSA), CAXII; format: binding; conditions: 37 °C; for ΔGintr CAXII: converted from Kd_intr, independent of pH; for ΔGobs CAXII: converted from Kd_obs, pH 7.0, FTSA
[19] = solubility observed visually and in absorption spectra; format: physicochemical; design: key: low solubility, LS
[20] = biological target: T5, mimic-CAIX (mutant of CAII: A65S, N67Q, I91L, F130V, V134L, L203A) (Homo sapiens, UniProt P00918, A65S/F130V/I91L/L203A/N67Q/V134L); conditions: intrinsic, calculated using pKa_CAZn(II)H2O of CAII, 37 °C
[21] = biological target: T3, CAIX
[22] = biological target: T5, mimic-CAIX (mutant of CAII: A65S, N67Q, I91L, F130V, V134L, L203A)
[23] = intrinsic, 37 °C, independent of pH and buffer
[24] = observed, sodium phosphate buffer pH 7.0, 37 °C, ITC

Chain of CAVI (P23280 18-308): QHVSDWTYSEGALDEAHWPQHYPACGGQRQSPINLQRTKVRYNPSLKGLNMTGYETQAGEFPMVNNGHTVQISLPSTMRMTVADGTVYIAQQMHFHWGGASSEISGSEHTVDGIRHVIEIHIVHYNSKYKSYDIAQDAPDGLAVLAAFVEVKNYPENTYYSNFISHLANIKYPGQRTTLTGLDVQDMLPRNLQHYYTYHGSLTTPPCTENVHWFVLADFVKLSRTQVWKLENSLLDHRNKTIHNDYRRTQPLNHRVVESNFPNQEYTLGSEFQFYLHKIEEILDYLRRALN
Chain of CAIV (P22748 19-312): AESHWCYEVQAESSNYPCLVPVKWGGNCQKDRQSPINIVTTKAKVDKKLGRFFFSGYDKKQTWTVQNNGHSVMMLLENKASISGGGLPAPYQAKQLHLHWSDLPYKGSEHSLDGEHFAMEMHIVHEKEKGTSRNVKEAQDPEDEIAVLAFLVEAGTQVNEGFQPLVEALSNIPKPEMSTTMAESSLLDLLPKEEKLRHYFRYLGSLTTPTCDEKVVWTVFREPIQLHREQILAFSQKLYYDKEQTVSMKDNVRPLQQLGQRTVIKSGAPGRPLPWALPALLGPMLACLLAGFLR
Chain of CAXIII (Q8N1Q1 whole entry): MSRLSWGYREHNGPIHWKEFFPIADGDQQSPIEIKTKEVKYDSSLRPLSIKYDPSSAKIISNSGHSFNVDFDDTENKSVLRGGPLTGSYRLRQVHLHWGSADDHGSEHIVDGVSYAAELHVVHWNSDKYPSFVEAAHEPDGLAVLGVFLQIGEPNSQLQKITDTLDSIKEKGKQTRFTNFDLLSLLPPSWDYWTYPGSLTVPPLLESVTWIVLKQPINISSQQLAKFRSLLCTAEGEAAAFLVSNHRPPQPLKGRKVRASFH
Chain of CAIII (P07451 whole entry): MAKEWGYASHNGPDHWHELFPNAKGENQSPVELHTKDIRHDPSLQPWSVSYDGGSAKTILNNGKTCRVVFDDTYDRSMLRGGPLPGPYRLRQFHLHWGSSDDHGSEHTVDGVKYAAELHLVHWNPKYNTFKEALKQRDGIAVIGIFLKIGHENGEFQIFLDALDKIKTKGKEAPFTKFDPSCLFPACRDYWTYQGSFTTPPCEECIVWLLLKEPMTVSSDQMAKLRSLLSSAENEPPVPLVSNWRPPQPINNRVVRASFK
Chain of CAVB (Q9Y2D0 34-317): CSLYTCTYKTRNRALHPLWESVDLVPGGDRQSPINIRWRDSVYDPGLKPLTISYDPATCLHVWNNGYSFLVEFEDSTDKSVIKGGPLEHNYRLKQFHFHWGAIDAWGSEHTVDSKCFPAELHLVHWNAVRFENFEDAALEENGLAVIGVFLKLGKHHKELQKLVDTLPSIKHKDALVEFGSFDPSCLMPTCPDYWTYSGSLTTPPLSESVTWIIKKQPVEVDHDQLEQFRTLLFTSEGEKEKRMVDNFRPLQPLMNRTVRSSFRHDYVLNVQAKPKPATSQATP
Chain of CAXIV (Q9ULX7 16-337): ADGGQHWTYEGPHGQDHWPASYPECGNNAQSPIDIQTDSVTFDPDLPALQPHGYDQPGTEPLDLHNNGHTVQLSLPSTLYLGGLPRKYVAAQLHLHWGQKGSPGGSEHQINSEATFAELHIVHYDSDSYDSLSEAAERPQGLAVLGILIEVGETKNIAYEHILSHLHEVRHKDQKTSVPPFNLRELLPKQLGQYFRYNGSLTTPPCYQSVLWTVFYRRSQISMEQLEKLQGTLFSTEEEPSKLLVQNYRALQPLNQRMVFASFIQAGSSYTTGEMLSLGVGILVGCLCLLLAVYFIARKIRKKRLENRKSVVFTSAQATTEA
Chain of CAVII (P43166 whole entry): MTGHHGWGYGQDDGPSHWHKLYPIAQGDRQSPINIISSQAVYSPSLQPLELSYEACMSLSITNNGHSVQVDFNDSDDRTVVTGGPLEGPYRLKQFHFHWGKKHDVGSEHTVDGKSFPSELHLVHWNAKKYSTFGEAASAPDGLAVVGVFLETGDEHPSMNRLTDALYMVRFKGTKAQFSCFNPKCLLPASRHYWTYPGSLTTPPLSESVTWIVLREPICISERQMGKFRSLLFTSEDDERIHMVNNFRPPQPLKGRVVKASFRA
T4 sequence (O43570 25-354): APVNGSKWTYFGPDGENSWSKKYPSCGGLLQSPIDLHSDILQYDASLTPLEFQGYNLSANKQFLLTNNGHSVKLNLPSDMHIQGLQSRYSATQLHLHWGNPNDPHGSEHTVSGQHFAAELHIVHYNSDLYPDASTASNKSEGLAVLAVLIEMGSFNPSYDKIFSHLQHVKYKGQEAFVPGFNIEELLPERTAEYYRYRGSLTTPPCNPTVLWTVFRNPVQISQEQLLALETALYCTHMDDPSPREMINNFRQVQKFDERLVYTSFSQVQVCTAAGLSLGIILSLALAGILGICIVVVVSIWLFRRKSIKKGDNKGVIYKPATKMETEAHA
T1 sequence (P00915 whole entry): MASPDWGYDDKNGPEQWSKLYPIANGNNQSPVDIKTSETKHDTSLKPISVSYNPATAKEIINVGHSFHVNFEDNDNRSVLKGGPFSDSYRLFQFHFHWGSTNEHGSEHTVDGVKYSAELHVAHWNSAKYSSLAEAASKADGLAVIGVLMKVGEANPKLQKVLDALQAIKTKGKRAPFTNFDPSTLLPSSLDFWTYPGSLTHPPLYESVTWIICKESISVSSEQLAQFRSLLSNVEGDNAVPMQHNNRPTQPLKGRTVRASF
Chain of CAVA (P35218 39-305): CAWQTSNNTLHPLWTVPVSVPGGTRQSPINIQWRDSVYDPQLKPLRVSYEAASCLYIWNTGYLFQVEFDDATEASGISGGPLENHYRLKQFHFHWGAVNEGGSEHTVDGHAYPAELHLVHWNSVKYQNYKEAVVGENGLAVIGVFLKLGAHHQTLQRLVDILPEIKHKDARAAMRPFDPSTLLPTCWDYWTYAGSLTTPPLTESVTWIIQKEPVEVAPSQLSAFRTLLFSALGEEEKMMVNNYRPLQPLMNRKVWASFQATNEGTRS

SMILES	ΔGintr CAI [1] [kcal/mol]	ΔGobs CAI [1] [kcal/mol]	ΔGintr CAII [2] [kcal/mol]	ΔGobs CAII [2] [kcal/mol]	ΔGintr CAVB [4] [kcal/mol]	ΔGobs CAVB [4] [kcal/mol]	ΔGintr CAVI [5] [kcal/mol]	ΔGobs CAVI [5] [kcal/mol]	ΔGintr CAVII [6] [kcal/mol]	ΔGobs CAVII [6] [kcal/mol]	ΔGobs CAIX [7] [kcal/mol]	ΔGobs CAXIII [8] [kcal/mol]	ΔGobs CAXIV [9] [kcal/mol]	f RSO2NH-, fraction of deprotonated sulfonamide [10]	pKa [10]	ΔHintr CAXII [13] [kcal/mol]	ΔGintr CAVA [17] [kcal/mol]	ΔGobs CAVA [17] [kcal/mol]	ΔGintr CAIX [7] [kcal/mol]	ΔGintr CAXIV [9] [kcal/mol]	also measured
COC(=O)c1cc(S(N)(=O)=O)c(Cl)cc1S(=O)(=O)c1ccccc1 [Compound 9a, Methyl 2-(benzenesulfonyl)-4-chloro-5-sulfamoylbenzoate]	-11.5	-9.7	-15.1	-12.8	-13.3	-11.2	-13.5	-10.3	-15.6	-13.3	-12	-11.7	-12.9	5.9% and 5.94%	8.2	-9.08					binding to CAII stronger than to CAXII (factor) [3]: 26 fold; ΔHintr CAI [11, 23]: -9.49 kcal/mol; ΔHobs CAI [11, 24]: -4.25 kcal/mol; ΔHintr CAII [12, 23]: -5.57 kcal/mol; ΔHobs CAII [12, 24]: -2.46 kcal/mol; -TΔSintr CAXII [13]: -4.11 kcal/mol; ΔHobs CAXII [13]: -6.55 kcal/mol; Δp_RSO2NH2H, protonation enthalpy of sulfonamide group [14]: -6.91 kcal/mol
COC(=O)c1cc(S(N)(=O)=O)c(S(=O)(=O)CCc2ccccc2)cc1Cl [Compound 7d, Methyl 2-chloro-4-(2-phenylethylsulfonyl)-5-sulfamoylbenzoate]	-9.27		≥ -9.73	≥ -5.26	≥ -9.66	≥ -5.26	-10.9	-5.5	≥ -9.8	≥ -5.26	-7.34	-6.6	≥ -5.26	0.2%			≥ -9.46	≥ -5.26	-12.1	≥ -9.8	ΔGintr CAIII [15]: ≥ -10.1 kcal/mol; ΔGobs CAIII [15]: ≥ -5.26 kcal/mol; ΔGintr CAIV [16]: ≥ -9.99 kcal/mol; ΔGobs CAIV [16]: ≥ -5.26 kcal/mol; ΔGintr CAXII [18]: -10.9 kcal/mol; ΔGobs CAXII [18]: -6.33 kcal/mol; ΔGintr CAXIII [8]: -10.6 kcal/mol; solubility [19]: LS
COC(=O)c1cc(S(N)(=O)=O)c(SC2CCCCC2)cc1Cl [Compound 3b, Methyl 2-chloro-4-(cyclohexylsulfanyl)-5-sulfamoylbenzoate]	-10.5	-6.79	-13.6	-9.37	-11.1	-7.03	-14.4	-9.2		-9.68	-13.5	-10.3	-11.2	0.3% and 0.25%	9.6	-11.5	-9.61	-5.66	-17.9	-15.5	ΔGintr CAIII [15]: -10.8 kcal/mol; ΔGobs CAIII [15]: -6.24 kcal/mol; ΔGintr CAIV [16]: -13.6 kcal/mol; ΔGobs CAIV [16]: -9.08 kcal/mol; binding affinity, times stronger to CAIX than CAXII [7]: 150 times; native CAIX bound more strongly than mimic-CAIX [7]: 10 fold; ΔGintr CAXIII [8]: -14.1 kcal/mol; ΔGintr mimic-CAIX [20]: -16.1 kcal/mol; -TΔSintr CAIX ([21]; intrinsic, 37 °C): -10.8 kcal/mol; ΔHintr CAIX [21, 23]: -7.15 kcal/mol; ΔHobs CAIX [21, 24]: -2.51 kcal/mol; ΔHintr mimic CAIX ([22]; intrinsic, 37 °C, calculated using protonation enthalpy of CAII): -7.46 kcal/mol; ΔHobs mimic CAIX [22, 24]: -2.39 kcal/mol; -TΔSintr CAXII [13]: -3.42 kcal/mol; ΔHobs CAXII [13]: -6.96 kcal/mol; Δp_RSO2NH2H, protonation enthalpy of sulfonamide group [14]: -8.53 kcal/mol
COC(=O)c1cc(S(N)(=O)=O)c(SCCc2ccccc2)cc1Cl [Compound 3d, Methyl 2-chloro-4-[(2-phenylethyl)sulfanyl]-5-sulfamoylbenzoate]	-10.7	-6.93	-13.8	-9.61	-11.2	-7.1	-14	-8.8	-14.2	-9.94	-11.2	-10.5	-10.4	0.3% and 0.25%	9.6	-12	-9.54	-5.59	-15.7	-14.7	ΔHobs CAXII [13]: -6.19 kcal/mol; Δp_RSO2NH2H, protonation enthalpy of sulfonamide group [14]: -9.8 kcal/mol
COC(=O)c1cc(S(N)(=O)=O)c(Cl)cc1SC1CCCCC1 [Compound 5b, Methyl 4-chloro-2-cyclohexylsulfanyl-5-sulfamoylbenzoate]	-12.6	-9.2	-14.8	-10.9	-15.5	-11.7		-9.49	-14.9	-10.9	-11.5	-11.4	-11.8	0.4%	9.4	-10.4	-11.3	-7.65	-15.7	-15.8	ΔGobs CAIII [15]: ≥ -5.26 kcal/mol; ΔGintr CAIV [16]: -14.4 kcal/mol; ΔGobs CAIV [16]: -10.2 kcal/mol; ΔGintr CAXIII [8]: -14.8 kcal/mol; -TΔSintr CAXII [13]: -4.76 kcal/mol; ΔHobs CAXII [13]: -6.5 kcal/mol; N (ITC, observed fitted parameter) CAXII ([13]; single repeats, pH 7.0, 37 °C, Figure S8): 1.0 and 1.1; Δp_RSO2NH2H, protonation enthalpy of sulfonamide group [14]: -7.96 kcal/mol
COC(=O)c1cc(S(N)(=O)=O)c(Br)cc1Sc1ccccc1 [Compound 6a, Methyl 4-bromo-2-(phenylsulfanyl)-5-sulfamoylbenzoate]	-11.4	-7.96	-14	-10.1	-14.5	-10.7	-13.9	-9.06	-13.5	-9.46	-11.4	-11.1	-11.2	0.4%			-9.44	-5.76	-15.5	-15.2	ΔGintr CAIII [15]: ≥ -9.54 kcal/mol; ΔGobs CAIII [15]: ≥ -5.26 kcal/mol; ΔGintr CAIV [16]: -14.7 kcal/mol; ΔGobs CAIV [16]: -10.5 kcal/mol; ΔGintr CAXII [18]: -14.9 kcal/mol; ΔGobs CAXII [18]: -10.9 kcal/mol; ΔGintr CAXIII [8]: -14.5 kcal/mol; solubility [19]: LS
